Source: US20250206732A1, “COMPOUNDS AND METHODS FOR THE TARGETED DEGRADATION OF KRAS” (Arvinas Operations, Inc., priority 2022, published 2025)

Molecular target: T1, AsPC-1 HiBiT-KRASG12D (Homo sapiens, UniProt P01116, G12D)
T1 construct: insert the HiBiT tag onto the N-terminus of one or more of the endogenous KRAS alleles; endogenous in cells; host or cells: AsPC-1 (ATCC CRL-1682), CRISPR-Cas9 knock-in clone, one tagged allele
Test: HiBiT degradation assay (G12D), AsPC-1 HiBiT-KRASG12D cells
Assay type: cell-based
Conditions: 24 hours treatment; for Dmax: ASPC1, AsPC-1 HiBiT-KRASG12D cells, maximum degradation observed; for DC50: AsPC-1 HiBiT-KRASG12D cells, HiBiT luminescence
Outline: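 HiBiT-KRAS abundance was read as Nano-Glo HiBiT lytic luminescence (45 min, room temperature) after a PBS wash. Before that, a 4 h alamar blue fluorescence read, normalized to DMSO, monitored viability. Treatment lasted 24 hours at 37 °C, in triplicate, using AsPC-1 cells with endogenous N-terminally HiBiT-tagged KRAS G12D.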

T1 sequence (P01116 1-188 isoform P01116-2 G12D): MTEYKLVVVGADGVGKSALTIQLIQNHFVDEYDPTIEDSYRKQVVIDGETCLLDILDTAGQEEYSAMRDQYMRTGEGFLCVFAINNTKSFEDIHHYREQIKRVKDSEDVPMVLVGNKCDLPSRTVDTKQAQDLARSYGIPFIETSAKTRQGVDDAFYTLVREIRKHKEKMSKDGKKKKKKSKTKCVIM

| SMILES | Dmax [%] | DC50 [nM] |
| --- | --- | --- |
| Cc1ncsc1-c1ccc([C@H](C)NC(=O)[C@@H]2C[C@@H](O)CN2C(=O)[C@@H](c2cc(N3CC4(CCN(CCOc5nc(N6CC7CCC(C6)N7)c6cnc(-c7cc(O)cc8ccc(F)c(F)c78)c(F)c6n5)CC4)C3)no2)C(C)C)cc1 (relative stereo) [Compound 68, (2S,4R)-1-[(2R*)-2-[3-(7-{2-[(4-{3,8-diazabicyclo[3.2.1]octan-3-yl}-7-(7,8-difluoro-3-hydroxynaphthalen-1-yl)-8-fluoropyrido[4,3-d]pyrimidin-2-yl)oxy]ethyl}-2,7-diazaspiro[3.5]nonan-2-yl)-1,2-oxazol-5-yl]-3-methylbutanoyl]-4-hydroxy-N-[(1S)-1-[4-(4-methyl-1,3-thiazol-5-yl)phenyl]ethyl]pyrrolidine-2-carboxamide] | 80 to 100 | < 600 |
| CCc1cccc2cc(O)cc(-c3ncc4c(N5CC6CCC(C5)N6)nc(OCCN5CCC6(CC5)CC(Oc5cc([C@H](C(=O)N7C[C@H](O)C[C@H]7C(=O)N[C@@H](C)c7ccc(-c8scnc8C)cc7)C(C)C)on5)C6)nc4c3F)c12 [Compound 231] | 80 to 100 | < 600 |
| CCc1cccc2cc(O)cc(-c3ncc4c(N5CC6CCC(C5)N6)nc(OCCN5CCC(CC6(F)CCN(CC(=O)N[C@H](C(=O)N7C[C@H](O)C[C@H]7C(=O)N[C@@H](C)c7ccc(-c8scnc8C)cc7)C(C)(C)C)CC6)CC5)nc4c3F)c12 [Compound 260, (2S,4R)-1-[(2S)-2-(2-{4-[(1-{2-[(4-{3,8-diazabicyclo[3.2.1]octan-3-yl}-7-(8-ethyl-3-hydroxynaphthalen-1-yl)-8-fluoropyrido[4,3-d]pyrimidin-2-yl)oxy]ethyl}piperidin-4-yl)methyl]-4-fluoropiperidin-1-yl}acetamido)-3,3-dimethylbutanoyl]-4-hydroxy-N-[(1S)-1-[4-(4-methyl-1,3-thiazol-5-yl)phenyl]ethyl]pyrrolidine-2-carboxamide] | 80 to 100 | < 600 |
| C#Cc1c(F)ccc2cccc(-c3ncc4c(N5CC6CCC(C5)N6)nc(OC[C@]56CCCN5[C@H](COc5cc([C@H](C(=O)N7C[C@H](O)C[C@H]7C(=O)N[C@@H](C)c7ccc(-c8scnc8C)cc7)C(C)C)on5)CC6)nc4c3F)c12 [Compound 316, (2S,4R)-1-[(2S)-2-[3-[[(3S,8R)-8-[[4-(3,8-diazabicyclo[3.2.1]octan-3-yl)-7-(8-ethynyl-7-fluoro-1-naphthyl)-8-fluoro-pyrido[4,3-d]pyrimidin-2-yl]oxymethyl]-1,2,3,5,6,7-hexahydropyrrolizin-3-yl]methoxy]isoxazol-5-yl]-3-methyl-butanoyl]-4-hydroxy-N-[(1S)-1-[4-(4-methylthiazol-5-yl)phenyl]ethyl]pyrrolidine-2-carboxamide] | 20 to 60 | < 600 |
| CCc1cccc2cc(O)cc(-c3ncc4c(N5CCCCCC5)nc(OC[C@@]56CCCN5[C@H](COC(=O)N5CCN(c7cc([C@H](C(=O)N8C[C@H](O)C[C@H]8C(=O)N[C@@H](C)c8ccc(-c9scnc9C)cc8)C(C)C)on7)[C@H](C)C5)CC6)nc4c3F)c12 [Compound 229, [(3S,8S)-8-[[4-(azepan-1-yl)-7-(8-ethyl-3-hydroxy-1-naphthyl)-8-fluoro-pyrido[4,3-d]pyrimidin-2-yl]oxymethyl]-1,2,3,5,6,7-hexahydropyrrolizin-3-yl]methyl (3R)-4-[5-[(1R)-1-[(2S,4R)-4-hydroxy-2-[[(1S)-1-[4-(4-methylthiazol-5-yl)phenyl]ethyl]carbamoyl]pyrrolidine-1-carbonyl]-2-methyl-propyl]isoxazol-3-yl]-3-methyl-piperazine-1-carboxylate] | 80 to 100 | < 600 |
| CCc1cccc2cc(O)cc(-c3ncc4c(N5CC6CCC(C5)N6)nc(OC[C@@]56CCCN5[C@H](COC(=O)N5CCN(c7cc([C@@H](C(=O)N8C[C@H](O)C[C@H]8C(=O)N[C@@H](C)c8ccc(-c9scnc9C)cc8)C(C)C)on7)[C@H](C)C5)CC6)nc4c3F)c12 [Compound 341, [(3S,8S)-8-[[4-(3,8-diazabicyclo[3.2.1]octan-3-yl)-7-(8-ethyl-3-hydroxy-1-naphthyl)-8-fluoro-pyrido[4,3-d]pyrimidin-2-yl]oxymethyl]-1,2,3,5,6,7-hexahydropyrrolizin-3-yl]methyl (3R)-4-[5-[(1S)-1-[(2S,4R)-4-hydroxy-2-[[(1S)-1-[4-(4-methylthiazol-5-yl)phenyl]ethyl]carbamoyl]pyrrolidine-1-carbonyl]-isobutyl]isoxazol-3-yl]-3-methyl-piperazine-1-carboxylate] | – | > 3000 |
| CCc1cccc2cc(O)cc(-c3ncc4c(N5CC6CCC(C5)N6)nc(OC[C@@H]5CC[C@@H](COC(=O)N6CC7(C6)CN(c6cc([C@H](C(=O)N8C[C@H](O)C[C@H]8C(=O)N[C@@H](C)c8ccc(-c9scnc9C)cc8)C(C)C)on6)C7)N5C)nc4c3F)c12 [Compound 213, [(2S,5S)-5-{[(4-{3,8-diazabicyclo[3.2.1]octan-3-yl}-7-(8-ethyl-3-hydroxynaphthalen-1-yl)-8-fluoropyrido[4,3-d]pyrimidin-2-yl)oxy]methyl}-1-methylpyrrolidin-2-yl]methyl 6-{5-[(2R)-1-[(2S,4R)-4-hydroxy-2-{[(1S)-1-[4-(4-methyl-1,3-thiazol-5-yl)phenyl]ethyl]carbamoyl}pyrrolidin-1-yl]-3-methyl-1-oxobutan-2-yl]-1,2-oxazol-3-yl}-2,6-diazaspiro[3.3]heptane-2-carboxylate] | 80 to 100 | < 600 |
| CCc1cccc2cc(O)cc(-c3ncc4c(N5CC6CCC(C5)N6)nc(OC[C@@]56CCCN5[C@H](CN5CCN(c7cc([C@@H](C(=O)N8C[C@H](O)C[C@H]8C(=O)N[C@@H](C)c8ccc(-c9scnc9C)cc8)C(C)C)on7)CC5)CC6)nc4c3F)c12 [Compound 95, (2S,4R)-1-[(2S)-2-[3-(4-{[(3S,7aS)-7a-{[(4-{3,8-diazabicyclo[3.2.1]octan-3-yl}-7-(8-ethyl-3-hydroxynaphthalen-1-yl)-8-fluoropyrido[4,3-d]pyrimidin-2-yl)oxy]methyl}-hexahydro-1H-pyrrolizin-3-yl]methyl}piperazin-1-yl)-1,2-oxazol-5-yl]-3-methylbutanoyl]-4-hydroxy-N-[(1S)-1-[4-(4-methyl-1,3-thiazol-5-yl)phenyl]ethyl]pyrrolidine-2-carboxamide] | – | > 3000 |
| CCc1cccc2cc(O)cc(-c3ncc4c(N5CC6CCC(C5)N6)nc(OC[C@@H]5CC[C@@H](COC(=O)N6CC(Oc7cc([C@@H](C(=O)N8C[C@H](O)C[C@H]8C(=O)N[C@@H](C)c8ccc(-c9scnc9C)cc8)C(C)C)on7)C6)N5C)nc4c3F)c12 [Compound 291] | < 20 | < 600 |
| CCc1cccc2cc(O)cc(-c3ncc4c(N5CC6CCC(C5)N6)nc(OC[C@@]56CCCN5[C@H](COC(=O)N5CC(COc7cc([C@@H](C(=O)N8C[C@H](O)C[C@H]8C(=O)N[C@@H](C)c8ccc(-c9scnc9C)cc8)C(C)C)on7)C5)CC6)nc4c3F)c12 [Compound 115, [(3S,7aS)-7a-{[(4-{3,8-diazabicyclo[3.2.1]octan-3-yl}-7-(8-ethyl-3-hydroxynaphthalen-1-yl)-8-fluoropyrido[4,3-d]pyrimidin-2-yl)oxy]methyl}-hexahydro-1H-pyrrolizin-3-yl]methyl 3-[({5-[(2S)-1-[(2S,4R)-4-hydroxy-2-{[(1S)-1-[4-(4-methyl-1,3-thiazol-5-yl)phenyl]ethyl]carbamoyl}pyrrolidin-1-yl]-3-methyl-1-oxobutan-2-yl]-1,2-oxazol-3-yl}oxy)methyl]azetidine-1-carboxylate] | 20 to 60 | 600 to 1000 |
| CCc1cccc2cc(O)cc(-c3ncc4c(N5CC6CCC(C5)N6)nc(OC[C@@]56CCCN5[C@H](COC(=O)N(C)Cc5cc([C@@H](C(=O)N7C[C@H](O)C[C@H]7C(=O)N[C@@H](C)c7ccc(-c8scnc8C)cc7)C(C)C)on5)CC6)nc4c3F)c12 [Compound 91, [(3S,7aS)-7a-{[(4-{3,8-diazabicyclo[3.2.1]octan-3-yl}-7-(8-ethyl-3-hydroxynaphthalen-1-yl)-8-fluoropyrido[4,3-d]pyrimidin-2-yl)oxy]methyl}-hexahydro-1H-pyrrolizin-3-yl]methyl N-({5-[(2S)-1-[(2S,4R)-4-hydroxy-2-{[(1S)-1-[4-(4-methyl-1,3-thiazol-5-yl)phenyl]ethyl]carbamoyl}pyrrolidin-1-yl]-3-methyl-1-oxobutan-2-yl]-1,2-oxazol-3-yl}methyl)-N-methylcarbamate] | 20 to 60 | 1000 to 3000 |
| CCc1cccc2cc(O)cc(-c3ncc4c(N5CC6CCC(C5)N6)nc(OCCN5CCC(C6CN(c7cc([C@H](C(=O)N8C[C@H](O)C[C@H]8C(=O)N[C@@H](C)c8ccc(-c9scnc9C)cc8)C(C)C)on7)C6)CC5)nc4c3F)c12 (single isomer, unassigned) [Compound 275] | 80 to 100 | < 600 |
| C#Cc1c(F)ccc2cc(O)cc(-c3ncc4c(N5CC6CCC(C5)N6)nc(OCCN5CCC(CC6CCN(c7cc([C@H](C(=O)N8C[C@H](O)C[C@H]8C(=O)N[C@@H](C)c8ccc(-c9scnc9C)cc8)C(C)C)on7)CC6)CC5)nc4c3F)c12 (relative stereo) [Compound 307, (2S,4R)-1-((R)-2-(3-(4-((1-(2-((4-((1R,5S)-3,8-diazabicyclo[3.2.1]octan-3-yl)-7-(8-ethynyl-7-fluoro-3-hydroxynaphthalen-1-yl)-8-fluoropyrido[4,3-d]pyrimidin-2-yl)oxy)ethyl)piperidin-4-yl)methyl)piperidin-1-yl)isoxazol-5-yl)-3-methylbutanoyl)-4-hydroxy-N—((S)-1-(4-(4-methylthiazol-5-yl)phenyl)ethyl)pyrrolidine-2-carboxamide] | 80 to 100 | < 600 |
